# Experimental data reported in patent publication US20260226035A1, “THIOCHROMAN DERIVATIVE AND PREPARATION METHOD THEREFOR AND USE THEREOF” (SHANGHAI INSTITUTE OF MATERIA MEDICA, CHINESE ACADEMY OF …, priority 2022, published 2026).
# Where two headings read alike, the source gives them in different places.
# How the values were obtained:
# [1] = biological target: ERα of uterine tissue (Rattus norvegicus, UniProt P06211); conditions: in vivo, po
# Experimental: HE experiment: 1) Cut the fixed uterine tissue into […] slices and place the slices in an oven for 1 hour; 2) Dewax the dried paraffin slices with conventional xylene, hydrate with gradient ethanol, and wash with distilled water; 3) Add hematoxylin to stain for 10 min to 30 min, then wash away the hematoxylin stain with running water; 4) Decolorize with 1% hydrochloric acid ethanol until the slices turn red and lighter in color, and then put them in running water to restore them to blue.
# [2] = test system: MCF-7 Tam1 cells; experiment: Inhibition of tamoxifen-resistant MCF-7 Tam1 cell proliferation (CTG); type: cell-based; conditions: Homo sapiens, MCF7:TAM1, 120 h, read-out: IC50 (nM), inhibitory activity on tamoxifen-resistant cells MCF-7 Tam1
# [3] = test system: MCF-7 mouse subcutaneous tumor model; experiment: Growth inhibition in MCF-7 mouse subcutaneous tumor model; type: in vivo, mice; conditions: p.o., QD; for mean tumour volume (mm^3), 21 days / TGI(%): 21 days; for TGI(%): LSZ102 15 mg/kg, Example 4 5 mg/kg
# Source text: Experimental reagents: fetal bovine serum (SH30070.03) (FBS, Hyclone, Logan, UT, USA); penicillin ([…]) (Sigma, St. Louis, MO, USA); streptomycin (85886) (Sigma, St. Louis, MO, USA); recombinant human insulin (91077C) (Sigma, St. Louis, MO, USA); EMEM medium (30-2003) (ATCC, Rockville, MD, USA); trypsin (15090046) (Gibco, Grand Island, NY, USA); HBSS ([…]), DMSO (D8418), PEG400 (8074851000), PEG300 (8074841000), PBS (806552), Solutol HS-15 (42966) (Sigma, St. Louis, MO, USA); Matrigel Matrix (BD Bioscience, USA); estrogen pellets (0.36 mg estradiol, 60-day release) (SE-121) (Innovative Research of America, Florida, USA); […] StarSignal Western Protein Marker (10-200 kDa) (M227-01) (GenStar, Beijing, China); Ponceau red, Tween 20, acrylamide, sodium dodecyl sulfate, PMSF (Solon, OH, USA); protein blotting membrane regeneration solution (ZN1923, Biolab, Beijing, China); protein lysis buffer (RIPA), 1.5 mol/L Tris HCl (pH 6.8), 1.5 mol/L Tris HCl (pH 8.8) (Beyotime, Shanghai, China); ECL luminescent solution (Thermo Fisher Scientific, Pittsburgh, PA, USA); […] Goat Anti-Rabbit IgG H&L (HRP) (ab6721) purchased from Abcam (Abcam, Cambridge, UK). […] Cell culture conditions: […] When the cells were fused to 90%, the old medium was discarded, and the cells were washed twice with 2 ml PBS. […] When the cells became round, 2 ml complete medium was quickly added to terminate digestion, and the cells were gently blown and collected, and centrifuged at 800 rpm, 4° C. for 5 min. The supernatant was discarded, the cells were resuspended with complete medium, cultured in bottles, and the medium was changed every other day. […] LSZ102 (15 mg/kg) group: […] LSZ-102 is a selective estrogen receptor degrader developed by Novartis in the clinical research stage and is one of the earliest oral SERDs to enter clinical research; […] The tumor inhibition efficacy of the compound was evaluated by tumor growth inhibition rate TGI (%).
# [4] = test system: MCF-7 cells; experiment: Inhibition of MCF-7 cell proliferation (CTG/ATP method); type: cell-based; conditions: for IC50: Homo sapiens, MCF7, 144 h, read-out: IC50 (nM), inhibitory activity on MCF-7 cell proliferation; for anti-tumor activity, times higher than SAR439859 / anti-tumor activity, times higher than fulvestrant: MCF-7 proliferation; for anti-tumor activity, times higher than SAR439859: vs SAR439859; for anti-tumor activity, times higher than fulvestrant: vs fulvestrant
# Experimental: The purpose of this experiment is to determine the in vitro proliferation inhibitory effect of the compounds of the present invention on the commonly used breast cancer estrogen receptor-positive cells, MCF-7 cells, and to evaluate the in vitro activity of the compounds based on IC50. The inhibitory effect of the compounds of the present invention on the proliferation of MCF-7 cells was tested by the ATP method, specifically the CTG method. CellTiter-Glo, referred to as CTG, is a rapid homogenous detection method for determining the number of viable cells in culture by quantifying ATP. ATP is a key indicator of the metabolism of living cells. The homogenous detection makes the cell lysis and the generated luminescent signal proportional to the amount of ATP present, and the amount of ATP is directly proportional to the number of cells in the culture. The specific experimental method is as follows. […] The cells were cultured in a 37° C. incubator under 5% CO2. Cell passaging, recovery and cryopreservation were performed according to conventional methods. […] On the second day, the drug with concentration gradient was added, 10 μL per well. […] The 96-well plate was incubated in 5% CO2 at 37° C. for 6 days. 50 μL of CTG reagent was added to each well of the 96-well plate, and the plate was shaken on a shaker for 5 min, and then left at room temperature and protected from light for 10 min. 60 μL of CTG reagent was transferred to the 384-well Opti-plate. The luminescence signals were read by a multifunctional enzyme marker, and the signal intensity was used to characterize the number of viable cells. The data of each dosing group were normalized to 100% of the mean value of the control group, and the data were processed and analyzed by GraphPad Prism software.
# [5] = Pharmacokinetics in rats, oral; type: in vivo, SD rats; conditions: rat, 10 mg/kg
# Experimental: The purpose of this experiment is to test the pharmacokinetic properties of the compounds of the present invention in rats.
# The solvent is 5% DMSO+5% Solutol+90% (0.5% MC), which is a colorless and clear dosing solution. The dosing method and dosage are: oral, 10 mg/kg. SD rats were randomly divided into groups according to body weight, fasted but not watered for 12-14 hours one day before dosing, and fed 4 hours after dosing. 0.1 mL of blood was collected from each animal through the eye socket each time, anticoagulated with EDTAK2, and the collection time points were: 0, 5, 15, 30 minutes, 1, 2, 4, 6, 8, 24 hours after administration of the test compound. After blood sample collection, it was placed on ice and centrifuged within 30 minutes to separate plasma (centrifugation conditions: 5000 rpm, 10 minutes, 4° C.). It was stored at −80° C. before analysis. The concentration of compounds in rat plasma was determined by LC-MS/MS. The data acquisition and control system software was Analyst 1.5.1 software (Applied Biosystem). The peak integration method of the chromatogram sample was automatic integration; the ratio of the sample peak area to the internal standard peak area was used as an indicator and regressed with the concentration of the sample. Regression method: linear regression, weight coefficient is 1/X^2. Pharmacokinetic parameters were analyzed and processed by WinNonlin Professional v6.3 (Pharsight, USA) using non-compartmental model. Cmax is the maximum measured blood drug concentration, the area under the blood drug concentration-time curve AUC (0→t) was calculated by the trapezoidal method, and Tmax is the time when the blood drug concentration reaches the peak after administration. Experimental data are expressed as “mean±standard deviation” (Mean±SD, n≥3) or “mean” (Mean, n=2).
# [6] = in vivo; conditions: female, Sprague-Dawley (SD), rat, po, 10 mg/kg
# ERα of uterine tissue, sequence (P06211 whole entry): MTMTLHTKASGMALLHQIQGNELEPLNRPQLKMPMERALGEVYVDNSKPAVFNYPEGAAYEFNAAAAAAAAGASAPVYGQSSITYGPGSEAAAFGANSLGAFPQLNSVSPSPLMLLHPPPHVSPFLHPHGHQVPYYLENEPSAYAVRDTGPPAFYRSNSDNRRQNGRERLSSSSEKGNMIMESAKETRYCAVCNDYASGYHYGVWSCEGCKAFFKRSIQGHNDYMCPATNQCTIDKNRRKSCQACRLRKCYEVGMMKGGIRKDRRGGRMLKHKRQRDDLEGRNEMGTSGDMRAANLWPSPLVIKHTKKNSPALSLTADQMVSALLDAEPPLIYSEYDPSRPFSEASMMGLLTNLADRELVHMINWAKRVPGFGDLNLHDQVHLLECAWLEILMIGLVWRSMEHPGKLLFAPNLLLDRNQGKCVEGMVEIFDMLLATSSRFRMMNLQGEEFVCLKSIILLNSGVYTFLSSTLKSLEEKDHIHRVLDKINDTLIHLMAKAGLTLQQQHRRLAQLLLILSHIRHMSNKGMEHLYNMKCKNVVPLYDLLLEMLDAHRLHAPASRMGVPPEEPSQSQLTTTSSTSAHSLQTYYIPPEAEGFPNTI
compound,measurement,setting,value
4-hydroxytamoxifen,Mean body weight,[1],43.9 g
"COc1cc(F)ccc1[C@@H]1CSc2cc(O)ccc2[C@@H]1c1ccc(OCCN2CC(CF)C2)cc1 (relative stereo) [Example 4, Cis-3-(4-fluoro-2-methoxyphenyl)-4-(4-(2-(3-(fluoromethyl)azetidin-1-yl)ethoxy)phenyl)-7-hydroxythiochroman]",IC50,[2],6.84 ± 1.4 nM
same,"mean tumour volume (mm^3), 0 day",[3],202 mm^3
same,"mean tumour volume (mm^3), 21 days",[3],332 mm^3
same,TGI(%),[3],78%
"COc1cc(F)ccc1C1CSc2cc(B(O)O)ccc2C1c1ccc(OCCN2CC(CF)C2)cc1 (stereo not drawn) [Example 10, Cis-(3-(4-fluoro-2-methoxyphenyl)-4-(4-(2-(3-(fluoromethyl)azetidin-1-yl)ethoxy)phenyl)thiochroman-7-boronic Acid]",IC50,"[4]; MCF-7, CTG, 6 days",1.7 nM
"COc1cc(F)ccc1[C@H]1CSc2cc(O)ccc2[C@H]1c1ccc(OCCN2CC(CF)C2)cc1 [Example 18, (3S,4R)-3-(4-fluoro-2-methoxyphenyl)-4-(4-(2-(3-(fluoromethyl)azetidin-1-yl)ethoxy)phenyl-)7-hydroxythiochroman]","anti-tumor activity, times higher than SAR439859",[4],15.6 times
same,"anti-tumor activity, times higher than fulvestrant",[4],7.6 times
same,IC50,[2],5.37 ± 0.42 nM
same,Tmax,"[5]; Sprague-Dawley (SD), plasma",3 h
same,half-life,"[5]; Sprague-Dawley (SD), plasma",8.92 h
same,MRTPO,[5],13.4 h
same,AUC0-t,[5]; plasma,1365 ng·h/mL
same,Cmax,[5]; plasma,198 ng/mL
same,concentration at 4 h,[6]; brain,17400 ng/g
same,Kp at 4 h,[6]; brain/plasma,14.1
same,concentration at 4 h,[6]; plasma,1230 ng/mL
"Oc1ccc2c(c1)SC[C@H](c1cc(F)c(F)cc1F)[C@@H]2c1ccc(OCCN2CC(CF)C2)cc1 [Example 19, (3S,4R)-4-(4-(2-(3-(fluoromethyl)azetidin-1-yl)ethoxy)phenyl)-3-(2,4,5-trifluorophenyl)-7-hydroxythiochroman]","anti-tumor activity, times higher than SAR439859",[4],15.6 times
same,"anti-tumor activity, times higher than fulvestrant",[4],7.6 times
"C[C@]12CC[C@@H]3c4ccc(O)cc4C[C@@H](CCCCCCCCC[S+]([O-])CCCC(F)(F)C(F)(F)F)[C@H]3[C@@H]1CC[C@@H]2O (stereo partly drawn) [Fulvestrant, reference compound]",IC50,[4],1.9 nM
"CC(F)(F)c1cc(F)ccc1-c1sc2cc(O)ccc2c1Oc1ccc(/C=C/C(=O)O)cc1 [LSZ102, reference compound]","mean tumour volume (mm^3), 0 day",[3],200 mm^3
same,"mean tumour volume (mm^3), 21 days",[3],345 mm^3
same,TGI(%),[3],75%
"O=C(O)c1ccc2c(c1)CCCC(c1ccc(Cl)cc1Cl)=C2c1ccc(O[C@H]2CCN(CCCF)C2)cc1 [SAR439859, reference compound]",IC50,[4],3.9 nM
